The record followed here is ChEMBL document CHEMBL5143511, “Positioning of an unprecedented 1,5-oxaza spiroquinone scaffold into SMYD2 inhibitors in epigenetic space” (Eur J Med Chem, 2022).

Bounds are passed on as bounds.

The test system of data set [1] is HEK293. As to the kind of experiment: Induction of apoptosis in HEK293 cells assessed as increase in cleaved PARP level at 0.0195 to 10 uM incubated for 24 hrs by immunoblot analysis. It is filed as toxicity, cell-based. The note with it: human, hek293, 24 h, dose 0.0195-10 µM. In general terms: In western blotting, separated proteins are transferred to a membrane and probed.

A further data set relates to MDA-MB-231. As to the kind of experiment: Antiproliferative activity against human MDA-MB-231 cells assessed as inhibition of cell growth incubated for 72 hrs by CellTiter-Glo luminescent cell viability assay. It is filed as functional, cell-based. The note with it: MDA-MB-231, 72 h. In general terms: ATP-based viability assays read luminescence as a measure of living cells.

For data set [2], the system named is MDA-MB-453. In words: Antitumor activity against human MDA-MB-453 cells xenografted in BALB/c nude mouse assessed as reduction in tumor volume at 40 mg/kg, ip measured every 3 days for 8 days by caliper method (reference value: 152+/- 11 mm3). It is filed as functional. The note with it: time 8 day. Background: A xenograft is tissue or cells of one species grown in another, often human tumour cells in immunodeficient mice.

Data set [3] is described as follows: AUClast in ICR mouse at 40 mg/kg, ip administered as vehicle 1 as DMSO/Cremophor EL/ PEG400/ DDW formulation measured upto 1440 mins by LC-MS/MS analysis. On the set-up: time < 1440 min, dose 40 mg/kg, route ip. It is filed as ADME, organism-based. The note with it: in vivo.
A short description of data set [4]: Drug metabolism in liver microsomes (unknown origin) assessed as M-78 metabolite formation by LC-MS/MS analysis. It counts as ADME, Microsome.
Another data set relates to Ca-Ski. In words: cells. It is filed as functional, cell-based. Particulars: Homo sapiens, 72 h.
Data set [5] deals with MDA-MB-453. As to the kind of experiment: Antitumor activity against human MDA-MB-453 cells xenografted in BALB/c nude mouse assessed as reduction in tumor volume at 40 mg/kg, ip measured every 3 days for 15 days by caliper method (reference value: 177 +/- 19 mm3). It counts as functional. The note with it: time 15 day.
A short description of data set [6]: Cmax in ICR mouse at 40 mg/kg, ip administered as vehicle 2 as corn oil suspension measured upto 1440 mins by LC-MS/MS analysis. It is filed as ADME, organism-based. More on the design: time < 1440 min, dose 40 mg/kg, route ip. The note with it: in vivo.
Data set [7] in a line: Tmax in ICR mouse at 40 mg/kg, ip administered as vehicle 2 as corn oil suspension measured upto 1440 mins by LC-MS/MS analysis. It counts as ADME, organism-based. Particulars: in vivo.
Data set [8] has as its system MDA-MB-453. In words: Antitumor activity against human MDA-MB-453 cells xenografted in BALB/c nude mouse assessed as reduction in tumor volume at 40 mg/kg, ip measured on day 4 by caliper method (reference value: 145 +/- 11 mm3). It counts as functional. Particulars: time 4 day.
A short description of data set [9]: Tmax in ICR mouse at 40 mg/kg, ip administered as vehicle 1 as DMSO/Cremophor EL/ PEG400/ DDW formulation measured upto 1440 mins by LC-MS/MS analysis. It counts as ADME, organism-based. The note with it: in vivo.
Data set [10] can be described thus: Drug metabolism in liver microsomes (unknown origin) assessed as M-115 metabolite formation by LC-MS/MS analysis. It counts as ADME, Microsome.
Data set [11] has as its system MDA-MB-453. As to the kind of experiment: Antitumor activity against human MDA-MB-453 cells xenografted in BALB/c nude mouse assessed as reduction in tumor volume at 40 mg/kg, ip measured on day 1 by caliper method (reference value: 137 +/- 10 mm3). The note with it: time 1 day. It counts as functional.
Data set [12] is described as follows: Cmax in ICR mouse at 40 mg/kg, ip administered as vehicle 1 as DMSO/Cremophor EL/ PEG400/ DDW formulation measured upto 1440 mins by LC-MS/MS analysis. On the set-up: dose 40 mg/kg, time < 1440 min, route ip. The note with it: in vivo. It counts as ADME, organism-based.
The subject of data set [13] is MDA-MB-453. As to the kind of experiment: Antitumor activity against human MDA-MB-453 cells xenografted in ip dosed BALB/c nude mouse assessed as reduction in tumor growth measured after 15 days. It is filed as functional. Particulars: MDA-MB-453, 360 h, time 15 day.
The subject of data set [14] is MDA-MB-453. In words: Antitumor activity against human MDA-MB-453 cells xenografted in BALB/c nude mouse assessed as reduction in tumor volume at 40 mg/kg, ip measured every 3 days for 11 days by caliper method (reference value: 168 +/- 16 mm3). It is filed as functional. The note with it: time 11 day.
Data set [15] can be described thus: AUClast in ICR mouse at 40 mg/kg, ip administered as vehicle 2 as corn oil suspension measured upto 1440 mins by LC-MS/MS analysis. It counts as ADME, organism-based. More on the design: dose 40 mg/kg, time < 1440 min, route ip. Particulars: in vivo.
Data set [16] is described as follows: Drug metabolism in liver microsomes (unknown origin) assessed as M-254 metabolite formation by LC-MS/MS analysis. It counts as ADME, Microsome.
Data set [17] deals with MDA-MB-453. As to the kind of experiment: cells. The note with it: Homo sapiens, MDA-MB-453, 72 h. It is filed as functional, cell-based.
Description: Antiproliferative activity against human MDA-MB-453 cells assessed as inhibition of cell growth incubated for 72 hrs by CellTiter-Glo luminescent cell viability assay
The nature of data set [18]: Drug metabolism in liver microsomes (unknown origin) assessed as M-56 metabolite formation by LC-MS/MS analysis. It counts as ADME, Microsome.
Data set [19] has as its system MDA-MB-453. As to the kind of experiment: Antitumor activity against human MDA-MB-453 cells xenografted in BALB/c nude mouse assessed as reduction in tumor weight at 40 mg/kg, ip measured after 15 days (reference value: 0.038 +/- 0.02 g). The note with it: time 15 day. It counts as functional.
The nature of data set [20]: AUCinfinity in ICR mouse at 40 mg/kg, ip administered as vehicle 1 as DMSO/Cremophor EL/ PEG400/ DDW formulation measured upto 1440 mins by LC-MS/MS analysis. On the set-up: dose 40 mg/kg, time < 1440 min, route ip. It counts as ADME, organism-based. Particulars: in vivo.
Data set [21] in a line: Metabolic stability in mouse liver microsomes assessed as parent compound remaining at 5 uM preincubated for 5 mins with NADPH followed by compound addition and measured after 15 mins by LC-MS/MS analysis. It counts as ADME, Microsome. The note with it: read-out: Stability.
Data set [22] in a line: Toxicity in […] xenografted with human MDA-MB-453 cells assessed as body weight loss at 40 mg/kg, ip administered as DMSO/Cremophor EL/ PEG400/ DDW formulation and measured after 4 days. The note with it: in vivo, 96 h, time 4 day. It is filed as organism-based.
A short description of data set [23]: Drug metabolism in liver microsomes (unknown origin) assessed as M+18 metabolite formation by LC-MS/MS analysis. It is filed as ADME, Microsome.
Data set [24] in a line: Drug concentration in ICR mouse plasma at 40 mg/kg, ip administered as vehicle 2 as corn oil suspension measured upto 1440 mins by HPLC analysis. It counts as ADME, organism-based.
For data set [25], the system named is HEK293. As to the kind of experiment: Induction of apoptosis in HEK293 cells assessed as increase in cleaved PARP level incubated for 24 hrs by immunoblot analysis. It counts as toxicity, cell-based. Particulars: human, hek293, 24 h, DDE = dose-dependent effect, dose 0.0195-10 µM.
The nature of data set [26]: AUCinfinity in ICR mouse at 40 mg/kg, ip administered as vehicle 2 as corn oil suspension measured upto 1440 mins by LC-MS/MS analysis. It is filed as ADME, organism-based. More on the design: time < 1440 min, dose 40 mg/kg, route ip. The note with it: in vivo.
Data set [27] is described as follows: Terminal half life in ICR mouse at 40 mg/kg, ip administered as vehicle 1 as DMSO/Cremophor EL/ PEG400/ DDW formulation measured upto 1440 mins by LC-MS/MS analysis. It counts as ADME, organism-based. The note with it: in vivo, read-out: beta t1/2.
A short description of data set [28]: Drug uptake in ICR mouse plasma assessed as time required to reach higher drug level at 40 mg/kg, ip administered as vehicle 1 as DMSO/Cremophor EL/ PEG400/ DDW formulation measured upto 1440 mins by HPLC analysis. It counts as ADME, organism-based.
The target in data set [29] is N-lysine methyltransferase SMYD2 (Homo sapiens, UniProt Q9NRG4). As to the kind of experiment: Inhibition of SMYD2 (unknown origin) using 3H-SAM as substrate incubated for 1 hr by filter binding method.
N-lysine methyltransferase SMYD2, sequence (Q9NRG4 whole entry): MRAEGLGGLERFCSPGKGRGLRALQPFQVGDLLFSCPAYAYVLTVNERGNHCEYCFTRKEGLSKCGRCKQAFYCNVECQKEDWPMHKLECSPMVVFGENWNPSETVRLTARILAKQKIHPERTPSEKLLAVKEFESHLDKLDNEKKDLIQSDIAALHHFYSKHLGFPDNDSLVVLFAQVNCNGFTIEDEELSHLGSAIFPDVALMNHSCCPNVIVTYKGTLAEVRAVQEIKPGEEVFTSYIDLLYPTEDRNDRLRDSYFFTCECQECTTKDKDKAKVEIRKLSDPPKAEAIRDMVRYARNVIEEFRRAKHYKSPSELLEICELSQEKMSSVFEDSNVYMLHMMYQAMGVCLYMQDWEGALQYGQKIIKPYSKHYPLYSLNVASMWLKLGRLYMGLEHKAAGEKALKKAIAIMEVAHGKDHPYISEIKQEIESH
Data set [30] can be described thus: Terminal half life in ICR mouse at 40 mg/kg, ip administered as vehicle 2 as corn oil suspension measured upto 1440 mins by LC-MS/MS analysis. It is filed as ADME, organism-based. The note with it: in vivo, read-out: beta t1/2.
In data set [31] the test system is MDA-MB-453. In words: Antitumor activity against human MDA-MB-453 cells xenografted in BALB/c nude mouse assessed as tumor growth inhibition rate at 40 mg/kg, ip measured after 15 days relative to control. Particulars: MDA-MB-453, 360 h, time 15 day, read-out: TGI. It is filed as functional.
Data set [32] deals with Glycogen synthase kinase-3 beta (Homo sapiens, UniProt P49841). In words: Inhibition of GSK3beta (unknown origin).
Glycogen synthase kinase-3 beta, sequence (P49841 whole entry): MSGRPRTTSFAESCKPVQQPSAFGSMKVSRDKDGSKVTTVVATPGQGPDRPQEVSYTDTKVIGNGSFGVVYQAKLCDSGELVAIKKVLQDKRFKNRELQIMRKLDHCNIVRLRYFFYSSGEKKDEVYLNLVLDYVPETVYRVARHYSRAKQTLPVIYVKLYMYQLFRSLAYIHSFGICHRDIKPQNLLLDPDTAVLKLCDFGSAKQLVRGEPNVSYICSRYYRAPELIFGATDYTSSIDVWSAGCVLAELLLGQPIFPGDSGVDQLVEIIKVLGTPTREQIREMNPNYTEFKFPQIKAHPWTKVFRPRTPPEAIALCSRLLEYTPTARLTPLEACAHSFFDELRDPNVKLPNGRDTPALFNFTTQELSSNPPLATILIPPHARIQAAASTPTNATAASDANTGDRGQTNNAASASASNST

Description for Ca-Ski: Antiproliferative activity against human Ca-Ski cells assessed as inhibition of cell growth incubated for 72 hrs by CellTiter-Glo luminescent cell viability assay

One may read the IC50 as the concentration that gives 50% inhibition. As for `O=C1COc2c(CCNCCN(C(=O)CCNCCc3ccc(Cl)c(Cl)c3)C3CCCCC3)ccc(O)c2N1`, the Activity result in the data set on HEK293 [1] is reported as “Non-Toxic”. For the same compound, the IC50 in the data set with MDA-MB-231 worked out at 13.1 µM.

The term AUC(0-t) denotes exposure summed from dosing to a finite time, without extrapolation to infinity. Usually Cmax stands for the highest concentration seen after dosing. One may read the Tmax as the time from dosing to the highest level. One may read the ED50 as the midpoint of the dose-response relation. A word on the AUC(0-inf): it is total exposure, with the tail of the curve extrapolated. `CN1C(=O)C(CCO[Si](c2ccccc2)(c2ccccc2)C(C)(C)C)COC12C=CC(=O)C=C2` (stereo unspecified): the Activity in the data set with MDA-MB-453 [2] came out at 105 mm3; in the data set with MDA-MB-453 [5], 67 mm3; in the data set with MDA-MB-453 [8], 126 mm3; in the data set on MDA-MB-453 [11], 136 mm3; with MDA-MB-453 [14], 87 mm3; in the data set with MDA-MB-453 [19], 0.009 g. Also, the Activity result is recorded as “Toxic” in [22] and “Dde” with HEK293 [25]. Further, the AUC(0-t) at 24 h is 5810 ng·h/mL in [3] and 1560 ng·h/mL in data set [15]. The Drug metabolism result in data set [4], in data set [10], in data set [16], in [18] and in data set [23] was “Metabolite_Detected” each time. The IC50 turned out to be 180 nM in the data set on Ca-Ski, 11.9 nM with MDA-MB-453 [17], 0.0854 µM in the data set with MDA-MB-231 and 679 nM in data set [29]. Besides, the Cmax came out at 301 ng/mL in [6] and 1400 ng/mL in data set [12]. For the same compound, the Tmax in data set [7] is 1.17 h; in data set [9] it was 15 min; in data set [28] it was 8 h. Also, in the data set with MDA-MB-453 [13], the ED50 was < 40 mg/kg. The AUC(0-inf) was 6050 ng·h/mL in [20] and 3130 ng·h/mL in [26]. Further, in [21], the remaining at 0.25 h, 5 µM amounted to 1.22%. In addition, the concentration at 24 h in [24] was determined as 279 ng/mL. Further, the figures for the half-life in data set [27] and in [30] were 290 min and 954 min, respectively. Further, the inhibition in vivo at 40 mg/kg in the data set on MDA-MB-453 [31] came out at 77.7%.

On to `O=C1C=CC2(C=C1)OCC(Cc1cn(-c3cccc(Cc4ccccc4)c3)nn1)C(=O)N2c1ccccc1` (stereo unspecified), for which the IC50 in data set [32] came out at 1530 nM; in data set [29], 3060 nM.
